# Measured values: the supplement of paper PMC11451515
# System: SEM cells
# Assay: cell viability relative to DMSO control; higher = less cytotoxic
# Conditions: 48 h
# How it was run: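 Cells were incubated for 48 h at 37°C before CellTiter-Glo One luminescence was read. The cells were NOMO1 or SEM (500 cells/well) or P12-Ichikawa (1000 cells/well) leukemia cells, adapted for at least four passages in each medium and seeded in 1536-well plates (5 μl). Dosing used library compounds in DMSO applied by pin over 11 threefold points, 47 μM to 0.79 nM. Viability is the per-plate percentage of DMSO wells, with cell-free wells as background.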
# [1] = HPLM + 10% dialyzed FBS, 0.000781 µM
# [2] = HPLM + 10% dialyzed FBS, 0.00234 µM
# [3] = HPLM + 10% dialyzed FBS, 0.00702 µM
# [4] = HPLM + 10% dialyzed FBS, 0.0211 µM
# [5] = HPLM + 10% dialyzed FBS, 0.0632 µM
# [6] = HPLM + 10% dialyzed FBS, 0.19 µM
# [7] = HPLM + 10% dialyzed FBS, 0.569 µM
# [8] = HPLM + 10% dialyzed FBS, 1.71 µM
# [9] = HPLM + 10% dialyzed FBS, 5.12 µM
# [10] = HPLM + 10% dialyzed FBS, 15.4 µM
# [11] = HPLM + 10% dialyzed FBS, 46.1 µM
# [12] = RPMI 5 mM glucose + 10% FBS, 0.000781 µM
# [13] = RPMI 5 mM glucose + 10% FBS, 0.00234 µM
# [14] = RPMI 5 mM glucose + 10% FBS, 0.00702 µM
# [15] = RPMI 5 mM glucose + 10% FBS, 0.0211 µM
# [16] = RPMI 5 mM glucose + 10% FBS, 0.0632 µM
# [17] = RPMI 5 mM glucose + 10% FBS, 0.19 µM
# [18] = RPMI 5 mM glucose + 10% FBS, 0.569 µM
# [19] = RPMI 5 mM glucose + 10% FBS, 1.71 µM
# [20] = RPMI 5 mM glucose + 10% FBS, 5.12 µM
# [21] = RPMI 5 mM glucose + 10% FBS, 15.4 µM
# [22] = RPMI 5 mM glucose + 10% FBS, 46.1 µM
# [23] = RPMI 5 mM glucose + 10% dialyzed FBS, 0.000781 µM
# [24] = RPMI 5 mM glucose + 10% dialyzed FBS, 0.00234 µM
# [25] = RPMI 5 mM glucose + 10% dialyzed FBS, 0.00702 µM
# [26] = RPMI 5 mM glucose + 10% dialyzed FBS, 0.0211 µM
# [27] = RPMI 5 mM glucose + 10% dialyzed FBS, 0.0632 µM
# [28] = RPMI 5 mM glucose + 10% dialyzed FBS, 0.19 µM
# [29] = RPMI 5 mM glucose + 10% dialyzed FBS, 0.569 µM
# [30] = RPMI 5 mM glucose + 10% dialyzed FBS, 1.71 µM
# [31] = RPMI 5 mM glucose + 10% dialyzed FBS, 5.12 µM
# [32] = RPMI 5 mM glucose + 10% dialyzed FBS, 15.4 µM
# [33] = RPMI 5 mM glucose + 10% dialyzed FBS, 46.1 µM
SMILES,cell viability [1],cell viability [2],cell viability [3],cell viability [4],cell viability [5],cell viability [6],cell viability [7],cell viability [8],cell viability [9],cell viability [10],cell viability [11],cell viability [12],cell viability [13],cell viability [14],cell viability [15],cell viability [16],cell viability [17],cell viability [18],cell viability [19],cell viability [20],cell viability [21],cell viability [22],cell viability [23],cell viability [24],cell viability [25],cell viability [26],cell viability [27],cell viability [28],cell viability [29],cell viability [30],cell viability [31],cell viability [32],cell viability [33]
C[C@]12CC[C@H]3[C@@H](CC[C@@]45O[C@@H]4C(O)=C(C#N)C[C@]35C)[C@@H]1CC[C@@H]2O,89.7%,79.7%,102%,97.3%,109%,106%,108%,111%,89.6%,86.3%,12.4%,90.9%,84.7%,95.5%,86%,90.4%,81.4%,75.4%,84.6%,56.9%,58.8%,4.92%,116%,107%,121%,105%,114%,102%,110%,110%,87.2%,52.8%,5.45%
CC[C@H](CO)Nc1nc(NCc2ccccc2)c2ncn(C(C)C)c2n1,89.9%,96.2%,95.3%,86.9%,93.7%,96.8%,83.7%,99.8%,94%,98.1%,58.7%,114%,97.4%,128%,111%,112%,126%,126%,99.9%,108%,120%,63.6%,102%,102%,88.6%,88.2%,90.8%,95.6%,98%,97%,102%,88.1%,35.3%
Cc1cnc(Nc2cccc(CN3CCOCC3)c2)nc1Nc1cccc([S+](=O)([O-])NC(C)(C)C)c1,77.4%,80.3%,97.3%,91.7%,74.4%,72.1%,84.7%,36.4%,15.7%,69.1%,53.6%,79.7%,88.8%,94.5%,110%,82.1%,87.9%,79%,58%,9.88%,74%,21.9%,79.6%,93.5%,93.5%,84.9%,72.5%,64%,81.8%,17.9%,9.6%,66.4%,39.3%
CN1CCC(CNc2ccc3ncc(-c4cccc(OC(F)(F)F)c4)n3n2)CC1,107%,102%,104%,95.6%,89.1%,89.7%,74.5%,49.7%,41.6%,32.2%,5.1%,109%,110%,113%,97.4%,96.4%,97.6%,78.3%,52.9%,42.5%,35.5%,6.26%,93.3%,109%,92.8%,98.7%,99.4%,87.3%,77.3%,42.3%,32.4%,30.4%,6.78%
CC[C@H](C)C(=O)O[C@H]1C[C@@H](C)\C=C2\C=C/[C@H](C)[C@H](CC[C@@H]3C[C@@H](O)CC(=O)O3)[C@@H]12,71.1%,85.1%,100%,87.9%,90.3%,93.8%,56.6%,86%,82.6%,59.8%,65.7%,51.9%,91.1%,92.5%,89.8%,93.2%,95%,84.8%,81.9%,81.2%,63.2%,64.5%,80.9%,84.6%,106%,92.6%,97%,108%,30%,99.8%,98%,71.6%,61.1%
COc1cc(N2CCC(N3CCN(C)CC3)CC2)ccc1Nc1ncc(Cl)c(Nc2ccccc2[S+](=O)([O-])C(C)C)n1,50.9%,55.6%,75.8%,89.1%,127%,84.1%,89.4%,19.3%,22%,17.5%,13.6%,48.1%,57.5%,93.2%,105%,117%,84.1%,72.7%,16.1%,12.9%,8.26%,4.14%,58.8%,63.1%,86.6%,117%,119%,86.2%,90.1%,17.8%,14.9%,15%,11.9%
O=c1oc2cc(O)ccc2s1,85.6%,110%,98.9%,95.4%,109%,105%,120%,93.9%,111%,105%,37.9%,91.8%,106%,82.9%,110%,103%,98.6%,112%,118%,109%,77.6%,24.8%,97.4%,119%,99.3%,109%,121%,88.3%,112%,106%,129%,90.3%,37.6%
